Reference: patent publication US20230204569A1, “ANALYSIS DEVICE” (INCYTON GMBH, priority 2020, published 2023)

Experiments:
[1] = tested on: Mouse fibroblast L929 cells
Protocol: A mitochondrial stress test was performed in a device of the present invention. Mouse fibroblast L929 cells were cultivated in the wells of a micro-titer plate at 37° C. and provided with fresh media in time intervals of 20 min.
A measurement cycle involved addition of following compounds at the indicated time points:
t=60 min: Addition of 1 μM oligomycin A
t=140 min: Addition of 1 μM antimycin A and 1 μM rotenone

[2] = tested on: L929 mouse fibroblast cells; experiment: Toxicology assay: OCR, ECAR and morphology under SLS; format: cell-based
Protocol: L929 mouse fibroblast cells were investigated under the influence of the reference toxicant sodium lauryl sulfate (SLS). The test settings included 12 h of pretreatment and 12 h of treatment with different concentrations of SLS. Throughout the assay, oxygen consumption and extracellular acidification, as well as morphology based on regular microscope images, were recorded.

[3] = 77.8 μg/ml SLS, first 3 h after SLS addition

| SMILES | Maximum respiration (OCR) as % of the basal respiration ([1]; 0.13 μM and 0.25 μM FCCP added at t=100 min after 1 μM oligomycin A) | reserve capacity ([1]; maximum respiration under FCCP minus basal respiration) | outcome after continuation of the treatment (12 h treatment) ([2]; 77.8 μg/ml SLS, continued treatment) | acidification (ECAR) [2, 3] | oxygen uptake (OCR) [2, 3] | OCRs and ECARs dose and time dependence ([2]; 77.8 μg/ml and 778 μg/ml SLS) |
| --- | --- | --- | --- | --- | --- | --- |
| N#CC(C#N)=NNc1ccc(OC(F)(F)F)cc1 [FCCP, carbonyl cyanide p-(trifluoromethoxy) phenylhydrazone] | 131% | 31% | – | – | – | – |
| CCCCCCCCCCCCOS(=O)(=O)[O-].[Na+] [SLS, sodium lauryl sulfate] | – | – | cell death and a drop in all metabolic values | increases | reduced | clear dose- and time-dependent reaction |
